# Measurements: the supplement of paper PMC10307832
# What was measured:
# Assay in all cases: relative viability (nuclei count vs DMSO), 5 days (fraction); higher = more cells survive
# A-427 = system: A-427
# Procedure, shortened: (§1)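 Relative viability was taken as the ratio of nuclei in treated wells to nuclei in vehicle wells. Lung cancer cell lines in 1536-well plates received compounds by pin tool one day after seeding, either one drug alone or a fixed anchor-drug dose plus five library-drug doses (not always all listed) in √10 steps. Nuclei were counted on 4× images after 5 days of treatment, and values are medians of duplicate plates.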
# ABC-1 = system: ABC-1
# Procedure, shortened: as §1
# COR-L23 = system: COR-L23
# Procedure, shortened: as §1
# EMC-BAC-2 = system: EMC-BAC-2
# Procedure, shortened: as §1
# HARA = system: HARA
# Procedure, shortened: as §1
# HCC-15 = system: HCC-15
# Procedure, shortened: as §1
# HCC-366 = system: HCC-366
# Procedure, shortened: as §1
# HCC-78 = system: HCC-78
# Procedure, shortened: as §1
# LC-2-ad = system: LC-2-ad
# Procedure, shortened: as §1
# NCI-H1734 = system: NCI-H1734
# Procedure, shortened: as §1
# NCI-H1793 = system: NCI-H1793
# Procedure, shortened: as §1
# NCI-H1944 = system: NCI-H1944
# Procedure, shortened: as §1
# NCI-H1993 = system: NCI-H1993
# Procedure, shortened: as §1
# NCI-H2009 = system: NCI-H2009
# Procedure, shortened: as §1
# NCI-H2023 = system: NCI-H2023
# Procedure, shortened: as §1
# NCI-H2126 = system: NCI-H2126
# Procedure, shortened: as §1
# NCI-H2228 = system: NCI-H2228
# Procedure, shortened: as §1
# NCI-H23 = system: NCI-H23
# Procedure, shortened: as §1
# NCI-H2405 = system: NCI-H2405
# Procedure, shortened: as §1
# NCI-H838 = system: NCI-H838
# Procedure, shortened: as §1
# SK-LU-1 = system: SK-LU-1
# Procedure, shortened: as §1
# UMC-11 = system: UMC-11
# Procedure, shortened: as §1
smiles,measurement,setting,value
CC1(C)CCC(c2ccc(Cl)cc2)=C(CN2CCN(c3ccc(C(=O)NS(=O)(=O)c4ccc(N[C@H](CCN5CCOCC5)CSc5ccccc5)c(S(=O)(=O)C(F)(F)F)c4)cc3)CC2)C1 [Navitoclax] + C[C@]1(O)C[C@@H](c2nc(-c3ccc4ccc(-c5ccccc5)nc4c3)c3c(N)nccn32)C1 [Linsitinib] (partner 1 µM),relative viability,A-427; first compound 0.005 µM,1.13
same,relative viability,A-427; first compound 0.01581 µM,1.11
same,relative viability,A-427; first compound 0.05 µM,0.911
same,relative viability,A-427; first compound 0.1581 µM,1.12
same,relative viability,A-427; first compound 0.5 µM,1.15
same,relative viability,ABC-1; first compound 0.005 µM,0.641
same,relative viability,ABC-1; first compound 0.01581 µM,0.976
same,relative viability,ABC-1; first compound 0.05 µM,0.81
same,relative viability,ABC-1; first compound 0.1581 µM,0.703
same,relative viability,ABC-1; first compound 0.5 µM,0.708
same,relative viability,COR-L23; first compound 0.005 µM,0.874
same,relative viability,COR-L23; first compound 0.01581 µM,0.991
same,relative viability,COR-L23; first compound 0.05 µM,0.97
same,relative viability,COR-L23; first compound 0.1581 µM,0.853
same,relative viability,COR-L23; first compound 0.5 µM,0.88
same,relative viability,EMC-BAC-2; first compound 0.005 µM,0.759
same,relative viability,EMC-BAC-2; first compound 0.01581 µM,0.895
same,relative viability,EMC-BAC-2; first compound 0.05 µM,0.809
same,relative viability,EMC-BAC-2; first compound 0.1581 µM,0.78
same,relative viability,EMC-BAC-2; first compound 0.5 µM,0.83
same,relative viability,HARA; first compound 0.005 µM,0.833
same,relative viability,HARA; first compound 0.01581 µM,1.16
same,relative viability,HARA; first compound 0.05 µM,0.749
same,relative viability,HARA; first compound 0.1581 µM,0.918
same,relative viability,HARA; first compound 0.5 µM,0.861
same,relative viability,HCC-15; first compound 0.005 µM,0.819
same,relative viability,HCC-15; first compound 0.01581 µM,0.97
same,relative viability,HCC-15; first compound 0.05 µM,0.783
same,relative viability,HCC-15; first compound 0.1581 µM,0.842
same,relative viability,HCC-15; first compound 0.5 µM,0.843
same,relative viability,HCC-366; first compound 0.005 µM,0.672
same,relative viability,HCC-366; first compound 0.01581 µM,0.728
same,relative viability,HCC-366; first compound 0.05 µM,0.155
same,relative viability,HCC-366; first compound 0.1581 µM,0.615
same,relative viability,HCC-366; first compound 0.5 µM,0.449
same,relative viability,HCC-78; first compound 0.005 µM,0.468
same,relative viability,HCC-78; first compound 0.01581 µM,0.604
same,relative viability,HCC-78; first compound 0.1581 µM,0.523
same,relative viability,HCC-78; first compound 0.5 µM,0.576
same,relative viability,LC-2-ad; first compound 0.005 µM,0.853
same,relative viability,LC-2-ad; first compound 0.01581 µM,0.904
same,relative viability,LC-2-ad; first compound 0.05 µM,0.787
same,relative viability,LC-2-ad; first compound 0.1581 µM,0.789
same,relative viability,LC-2-ad; first compound 0.5 µM,0.796
same,relative viability,NCI-H1734; first compound 0.005 µM,0.834
same,relative viability,NCI-H1734; first compound 0.01581 µM,0.948
same,relative viability,NCI-H1734; first compound 0.1581 µM,0.797
same,relative viability,NCI-H1734; first compound 0.5 µM,0.857
same,relative viability,NCI-H1793; first compound 0.005 µM,0.97
same,relative viability,NCI-H1793; first compound 0.01581 µM,1.17
same,relative viability,NCI-H1793; first compound 0.05 µM,0.643
same,relative viability,NCI-H1793; first compound 0.1581 µM,0.834
same,relative viability,NCI-H1793; first compound 0.5 µM,0.766
same,relative viability,NCI-H1944; first compound 0.005 µM,1.19
same,relative viability,NCI-H1944; first compound 0.01581 µM,1.33
same,relative viability,NCI-H1944; first compound 0.05 µM,1.01
same,relative viability,NCI-H1944; first compound 0.1581 µM,1.19
same,relative viability,NCI-H1944; first compound 0.5 µM,1.17
same,relative viability,NCI-H1993; first compound 0.005 µM,0.721
same,relative viability,NCI-H1993; first compound 0.01581 µM,0.752
same,relative viability,NCI-H1993; first compound 0.05 µM,0.706
same,relative viability,NCI-H1993; first compound 0.1581 µM,0.672
same,relative viability,NCI-H1993; first compound 0.5 µM,0.675
same,relative viability,NCI-H2009; first compound 0.005 µM,1.08
same,relative viability,NCI-H2009; first compound 0.01581 µM,1.25
same,relative viability,NCI-H2009; first compound 0.05 µM,1.16
same,relative viability,NCI-H2009; first compound 0.1581 µM,1.18
same,relative viability,NCI-H2009; first compound 0.5 µM,1.31
same,relative viability,NCI-H2023; first compound 0.005 µM,0.625
same,relative viability,NCI-H2023; first compound 0.01581 µM,0.713
same,relative viability,NCI-H2023; first compound 0.05 µM,0.716
same,relative viability,NCI-H2023; first compound 0.1581 µM,0.766
same,relative viability,NCI-H2023; first compound 0.5 µM,0.647
same,relative viability,NCI-H2126; first compound 0.005 µM,0.708
same,relative viability,NCI-H2126; first compound 0.01581 µM,0.748
same,relative viability,NCI-H2126; first compound 0.05 µM,0.786
same,relative viability,NCI-H2126; first compound 0.1581 µM,0.661
same,relative viability,NCI-H2126; first compound 0.5 µM,0.725
same,relative viability,NCI-H2228; first compound 0.005 µM,0.877
same,relative viability,NCI-H2228; first compound 0.01581 µM,0.81
same,relative viability,NCI-H2228; first compound 0.05 µM,0.623
same,relative viability,NCI-H2228; first compound 0.1581 µM,0.626
same,relative viability,NCI-H2228; first compound 0.5 µM,0.639
same,relative viability,NCI-H23; first compound 0.005 µM,0.628
same,relative viability,NCI-H23; first compound 0.01581 µM,0.691
same,relative viability,NCI-H23; first compound 0.05 µM,0.559
same,relative viability,NCI-H23; first compound 0.1581 µM,0.509
same,relative viability,NCI-H23; first compound 0.5 µM,0.642
same,relative viability,NCI-H2405; first compound 0.005 µM,0.899
same,relative viability,NCI-H2405; first compound 0.01581 µM,1.02
same,relative viability,NCI-H2405; first compound 0.05 µM,0.922
same,relative viability,NCI-H2405; first compound 0.1581 µM,0.937
same,relative viability,NCI-H2405; first compound 0.5 µM,0.88
same,relative viability,NCI-H838; first compound 0.005 µM,0.89
same,relative viability,NCI-H838; first compound 0.01581 µM,1.11
same,relative viability,NCI-H838; first compound 0.05 µM,1.12
same,relative viability,NCI-H838; first compound 0.1581 µM,1.03
same,relative viability,NCI-H838; first compound 0.5 µM,1.03
same,relative viability,SK-LU-1; first compound 0.005 µM,1.07
same,relative viability,SK-LU-1; first compound 0.01581 µM,1.25
same,relative viability,SK-LU-1; first compound 0.05 µM,1.2
same,relative viability,SK-LU-1; first compound 0.1581 µM,1.08
same,relative viability,SK-LU-1; first compound 0.5 µM,0.773
same,relative viability,UMC-11; first compound 0.005 µM,0.97
same,relative viability,UMC-11; first compound 0.01581 µM,1.03
same,relative viability,UMC-11; first compound 0.1581 µM,1.01
same,relative viability,UMC-11; first compound 0.5 µM,0.893
